Reference: patent US20240279202A1 (NURIX THERAPEUTICS, INC., priority 2021, published 2024)

Molecular target: T1, ITK (Homo sapiens, UniProt Q08881)
T1 sequence (Q08881 1-620): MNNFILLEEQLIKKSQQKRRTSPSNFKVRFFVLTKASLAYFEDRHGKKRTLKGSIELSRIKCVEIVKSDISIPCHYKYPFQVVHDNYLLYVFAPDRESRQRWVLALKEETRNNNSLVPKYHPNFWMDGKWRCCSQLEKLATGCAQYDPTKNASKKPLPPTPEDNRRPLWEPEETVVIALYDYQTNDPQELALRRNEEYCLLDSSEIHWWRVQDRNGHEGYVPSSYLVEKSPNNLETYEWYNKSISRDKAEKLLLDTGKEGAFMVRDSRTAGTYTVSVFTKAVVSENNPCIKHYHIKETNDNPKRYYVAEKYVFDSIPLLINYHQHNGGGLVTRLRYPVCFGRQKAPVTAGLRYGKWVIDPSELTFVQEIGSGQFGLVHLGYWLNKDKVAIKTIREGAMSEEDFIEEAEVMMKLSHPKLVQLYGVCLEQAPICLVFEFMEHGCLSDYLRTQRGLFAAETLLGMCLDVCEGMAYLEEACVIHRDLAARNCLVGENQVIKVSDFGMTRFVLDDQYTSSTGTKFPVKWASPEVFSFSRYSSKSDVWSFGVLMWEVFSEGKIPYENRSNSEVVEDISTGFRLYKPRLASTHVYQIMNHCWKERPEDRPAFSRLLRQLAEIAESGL
Assay: ITK degradation MSD (Meso Scale Discovery) assay
Assay type: cell-based
Design: either human Jurkat (Clone E6-1 ATCC TIB-152) or Motl4 (ATCC CRL-1552), were plated; endogenous in cells; host or cells: Jurkat clone E6-1 (ATCC TIB-152) or Molt4 (ATCC CRL-1552)
Settings: Jurkat or Molt4 cells, 4 or 6 hrs
Procedure: ITK Degradation MSD (Meso Scale Discovery) Assay Compound dilution series (7-point, 5 fold dilutions in DMSO, rows B-H with replicate in Column 1⁄2, 3⁄4, 5⁄6, 7,8, at 2000× the final required concentrations were prepared in 96 well plates (Falcon, cat. no. 353077). Row A, Column 1-8 were control DMSO. The 2000× solutions ranged from 2 mM to 128 nM (final assay concentration range 1 μM to […]). The 2000× solutions were added to cells in […], for a final DMSO concentration of 0.5% and final assay compound concentration of 1×. For the cells, either human Jurkat (Clone E6-1 ATCC TIB-152) or Motl4 (ATCC CRL-1552), were plated at 1×10^6 cells/mL, 100 μL/well ([…]) in complete RPMI (10% FBS, 1% L-glutamine). Cells were incubated for 4 or 6 hrs at 32° C./6% CO2. Following incubation, plates were centrifuged at 1200 rpm for 5 min. supernatant was removed and 50 μL of cell lysis buffer ((MSD Tris lysis buffer (R60TX), Complete Mini EDTA-free protease inhibitor (Sigma 11836170001), Protease Inhibitor Cocktail (Sigma, P2714), Phosphatase Inhibitor Cocktail 2 and 3 (Sigma, P5726 and P0044), and Benzonase (Sigma, E1014)) was added to each well. Plates were sealed and shook at 4° C. for 30 min. Plates were centrifuged and 45 μL was removed for plate assays. Assay plate preparation: Meso Scale Discovery (MSD) multi-array sm spot 96 well plates (Goat anti-Rabbit L^45-RA), were blocked with 3% BSA blocking buffer (3% Bovine Serum Albumin (Sigma A3059)+TBS 0.2% Tween-20) for 1 hr with gentle rocking at room temperature. Plates were then washed with 200 μL of 1× TBST (TBS 0.2% Tween-20) 3 times. After last wash, liquid was removed and 50 μL per well of capture antibody (abcam ITK Y402-ab32507) was added to plates at a 1:1000 dilution in blocking buffer (above). Plates were sealed and rocked at room temperature for 2 hrs. Plates were then washed 3 times with 200 μL of 1× TBST. After last wash, liquid was removed and 45 μL of cell lysate (from above) was added to each plate. Plates were sealed and rocked overnight at 4° C. Next day, cell lysates were removed, and assay plates were washed 3 times with 200 μL of 1× TBST. After last wash, liquid was removed and detection antibody (CST ITK (2F12) #2380) was added at 50 μL per well at a dilution of 1:1000 in blocking buffer. Plates were sealed and rocked at room temperature for 2 hrs. Plates were washed 3 times with 200 uL of 1× TBST. After last wash, liquid was removed, MSD Mouse anti-Rabbit sulfo tag (R32AC-1) was diluted to 1:1000 in blocking buffer. 50 μL was added to each well on the plate. Plates were sealed and incubated at room temperature for 1 hr. Plates were washed 3 times with 200 μL of 1× TBST. After last wash, liquid was removed and 150 μL of 1× MSD Read Buffer T ([…]) was then added to each well for ECL read out. For reading ECL signal, plate is read on a Meso Scale Discovery (MSD) MESO Sector S 600 plate reader. Percent ITK in then calculated as described below. Percent ITK remaining per sample was calculated as follows: [formula] Using Graphpad Prism, % ITK remaining values were plotted as a function of compound concentration. To determine DC50 and Dmax values, resulting curves were fit to the Prism curve-fitting equation “log(inhibitor) vs response-Variable slope (four parameters)” (reported best fit value IC50 used as DC50).

Structure (SMILES) | DC50 [nM] | Dmax [%]
C[C@@]12Cc3[nH]nc(C(=O)Nc4cnn([C@H](c5ccccc5)C5CN(C(=O)CCOCCOCCOCCNc6cccc7c6C(=O)N(C6CCC(=O)NC6=O)C7=O)C5)c4)c3C[C@@H]1C2(F)F (stereo partly drawn) [Compound 28, (4aS,5aR)-N-(1-((1S)-(1-(3-(2-(2-(2-((2-(2,6-dioxopiperidin-3-yl)-1,3-dioxoisoindolin-4-yl)amino)ethoxy)ethoxy)ethoxy)propanoyl)azetidin-3-yl)(phenyl)methyl)-1H-pyrazol-4-yl)-5,5-difluoro-5a-methyl-1,4,4a,5,5a,6-hexahydrocyclopropa[f]indazole-3-carboxamide] | 3.9 | 94
C[C@@]12Cc3[nH]nc(C(=O)Nc4cnn([C@H](c5ccccc5)C5CN(C(=O)CCOCCOCCOCCOCCOCCNc6cccc7c6C(=O)N(C6CCC(=O)NC6=O)C7=O)C5)c4)c3C[C@@H]1C2(F)F (stereo partly drawn) [Compound 29, (4aS,5aR)-N-(1-((1S)-(1-(1-((2-(2,6-dioxopiperidin-3-yl)-1,3-dioxoisoindolin-4-yl)amino)-3,6,9,12,15-pentaoxaoctadecan-18-oyl)azetidin-3-yl)(phenyl)methyl)-1H-pyrazol-4-yl)-5,5-difluoro-5a-methyl-1,4,4a,5,5a,6-hexahydrocyclopropa[f]indazole-3-carboxamide] | 21 | 95
C[C@@]12Cc3[nH]nc(C(=O)Nc4cnn([C@H](c5ccccc5)C5CN(C(=O)CCOCCOCCOCCOCCOCCOCCOCCOCCNc6cccc7c6C(=O)N(C6CCC(=O)NC6=O)C7=O)C5)c4)c3C[C@@H]1C2(F)F (stereo partly drawn) [Compound 30, (4aS,5aR)-N-(1-((1S)-(1-(1-((2-(2,6-dioxopiperidin-3-yl)-1,3-dioxoisoindolin-4-yl)amino)-3,6,9,12,15,18,21,24-octaoxaheptacosan-27-oyl)azetidin-3-yl)(phenyl)methyl)-1H-pyrazol-4-yl)-5,5-difluoro-5a-methyl-1,4,4a,5,5a,6-hexahydrocyclopropa[f]indazole-3-carboxamide] | 20 | 92
C[C@@]12Cc3[nH]nc(C(=O)Nc4cnn([C@H](c5ccccc5)C5CN(C(=O)CCCCc6cccc7c6CN(C6CCC(=O)NC6=O)C7=O)C5)c4)c3C[C@@H]1C2(F)F (stereo partly drawn) [Compound 32, (4aS,5aR)-N-(1-((1S)-(1-(5-(2-(2,6-dioxopiperidin-3-yl)-1-oxoisoindolin-4-yl)pentanoyl)azetidin-3-yl)(phenyl)methyl)-1H-pyrazol-4-yl)-5,5-difluoro-5a-methyl-1,4,4a,5,5a,6-hexahydrocyclopropa[f]indazole-3-carboxamide] | 25 | 69
CC(C1CN(C(=O)C2CN(C3CCN(c4ccc5c(c4)C(=O)N(C4CCC(=O)NC4=O)C5=O)CC3)C2)C1)n1cc(NC(=O)c2n[nH]c3c2C[C@@H]2C(F)(F)[C@]2(C)C3)cn1 (stereo partly drawn) [Compound 39, (4aS,5aR)-N-(1-(1-(1-(1-(1-(2-(2,6-dioxopiperidin-3-yl)-1,3-dioxoisoindolin-5-yl)piperidin-4-yl)azetidine-3-carbonyl)azetidin-3-yl)ethyl)-1H-pyrazol-4-yl)-5,5-difluoro-5a-methyl-1,4,4a,5,5a,6-hexahydrocyclopropa[f]indazole-3-carboxamide] | 0.88 | 94

The next lines start with the values.

DC50 [nM] | Dmax [%] | Structure (SMILES)
3.8 | 92 | C[C@@]12Cc3[nH]nc(C(=O)Nc4cnn([C@H](c5ccccc5)C5CN(C(=O)CCOCCNc6cccc7c6C(=O)N(C6CCC(=O)NC6=O)C7=O)C5)c4)c3C[C@@H]1C2(F)F (stereo partly drawn) [Compound 27, (4aS,5aR)-N-(1-((1S)-(1-(3-(2-((2-(2,6-dioxopiperidin-3-yl)-1,3-dioxoisoindolin-4-yl)amino)ethoxy)propanoyl)azetidin-3-yl)(phenyl)methyl)-1H-pyrazol-4-yl)-5,5-difluoro-5a-methyl-1,4,4a,5,5a,6-hexahydrocyclopropafindazole-3-carboxamide]
44 | 95 | C[C@@]12Cc3[nH]nc(C(=O)Nc4cnn([C@H](c5ccccc5)C5CN(CCOCCOCCOCCOCCOCCNc6cccc7c6C(=O)N(C6CCC(=O)NC6=O)C7=O)C5)c4)c3C[C@@H]1C2(F)F (stereo partly drawn) [Compound 31, (4aS,5aR)-N-(1-((1S)-(1-(17-((2-(2,6-dioxopiperidin-3-yl)-1,3-dioxoisoindolin-4-yl)amino)-3,6,9,12,15-pentaoxaheptadecyl)azetidin-3-yl)(phenyl)methyl)-1H-pyrazol-4-yl)-5,5-difluoro-5a-methyl-1,4,4a,5,5a,6-hexahydrocyclopropa[f]indazole-3-carboxamide]
1.6 | 72 | C[C@@]12Cc3[nH]nc(C(=O)Nc4cnn([C@H](c5ccccc5)C5CN(C(=O)C6CN(C7CCN(c8ccc(NC9CCC(=O)NC9=O)cn8)CC7)C6)C5)c4)c3C[C@@H]1C2(F)F (stereo partly drawn) [Compound 36, (4aS,5aR)-N-(1-((1S)-(1-(1-(1-(5-((2,6-dioxopiperidin-3-yl)amino)pyridin-2-yl)piperidin-4-yl)azetidine-3-carbonyl)azetidin-3-yl)(phenyl)methyl)-1H-pyrazol-4-yl)-5,5-difluoro-5a-methyl-1,4,4a,5,5a,6-hexahydrocyclopropa[f]indazole-3-carboxamide]
0.57 | 86 | C[C@@]12Cc3[nH]nc(C(=O)Nc4cnn([C@H](c5ccccc5)C5CN(CC6CN(c7ccc8c(c7)C(=O)N(C7CCC(=O)NC7=O)C8=O)CCO6)C5)c4)c3C[C@@H]1C2(F)F (stereo partly drawn) [Compound 41, (4aS,5aR)-N-(1-((1S)-(1-((4-(2-(2,6-dioxopiperidin-3-yl)-1,3-dioxoisoindolin-5-yl)morpholin-2-yl)methyl)azetidin-3-yl)(phenyl)methyl)-1H-pyrazol-4-yl)-5,5-difluoro-5a-methyl-1,4,4a,5,5a,6-hexahydrocyclopropa[f]indazole-3-carboxamide]
